Measurements published in patent publication US7323597B2, “Method for the production of diaminoxylene by continuous hydrogenation of liquid phthalonitrile” (BASF Aktiengesellschaft, priority 2003, dated 2008).

Test: Solubility of IPN in MXDA
Assay type: physicochemical
Details: in MXDA (meta-xylylenediamine) as solvent, at 70° C.

For N#Cc1cccc(C#N)c1 [IPN, 1,3-dicyanobenzene], the “solubility of IPN in MXDA” value was “approx. 20 % by weight”.
